Values after ≈ are worked out from the molar mass of the structure shown. Positions of bridges follow the written chain, without caps; N, C: chain ends. Non-standard residues stand in square brackets, D forms with d. Residues, ends and D or L forms follow the SMILES beside them. *: point of attachment. Ileψ(thiazoline)Cys = CC[C@H](C)[C@H](N)C1=N[C@H](C(=O)*)CS1; dOrn = NCCC[C@@H](N)C(=O)O
How the values were obtained:
Assay type in all cases: cell-based
[1] = system: Streptomyces spheroides NRRL 15600; assay: antibiotic sensitivity of the producing culture
Description: In classifying the microorganism as a new strain of S. spheroides, the methods recommended by the International Streptomyces Project (ISP) for the characterization of Streptomyces species [E. B. Shirling and D. Gottlieb, "Methods of Characterization of Streptomyces species," Int. J. Syst. Bacteriol. 16(3), 313-340 (1966)] were followed along with certain supplementary tests.

Escherichia coli = assay: antibiotic activity of column fractions
Protocol: (§1) Whole broth (100 L), prepared in a manner similar to that of Example 1, Section B, was filtered using a filter aid (Hyflo Supercel, Johns-ManvilleCorp.). The filtered broth (86 L) is adjusted to pH 2 with 5N hydrochloric acid and then is extracted twice with ethyl acetate (1/2 volumes). The ethyl acetate extracts are concentrated under vacuum to give an oily residue (49 g). This residue is dissolved in methanol and placed on a 10-L Diaion HP-20 column (Mitsubishi Industries). The column is washed with water (500 ml) and eluted with acetonitrile:water (30 L of 3:7 and 50 L of 3:2) and acetonitrile (20 L). Elution is carried out at a rate of 100 ml/min., collecting 4-liter fractions. Fractions are tested for antibiotic activity against Micrococcus luteus, Escherichia coli, and Neurospora crassa.

Neurospora crassa = assay: antibiotic activity of column fractions
Protocol: as §1

[2] = system: Staphylococcus aureus X400; assay: standard agar-dilution MIC assay; conditions: Staphylococcus aureus, X400
Description: (§2) Table V summarizes the minimal inhibitory concentrations (MIC) at which factor S-1 inhibits certain organisms as determined by standard agar-dilution assays. In Table V, the activity of factor S-1 is compared with that of rifampin.

Salmonella typhi 1335 = assay: standard agar-dilution MIC assay; conditions: Salmonella enterica
Description: as §2

[3] = system: Pseudomonas aeruginosa Ps18; assay: standard agar-dilution MIC assay
Description: as §2

[4] = system: Klebsiella pneumoniae KAE; assay: standard agar-dilution MIC assay; conditions: Klebsiella pneumoniae
Description: as §2

Shigella sonnei N9 = assay: standard agar-dilution MIC assay
Description: as §2

Proteus rettgeri C24 = assay: standard agar-dilution MIC assay; conditions: Providencia rettgeri, C24
Description: as §2

Salmonella typhi X514 = assay: standard agar-dilution MIC assay; conditions: Salmonella enterica
Description: as §2

[5] = system: Streptococcus faecium ATCC 9790; assay: standard agar-dilution MIC assay; conditions: Enterococcus faecium, ATCC9790
Description: as §2

Proteus morganii PR15 = assay: standard agar-dilution MIC assay; conditions: Morganella morganii, PR15
Description: as §2

[6] = system: Staphylococcus aureus NRRL B313; assay: standard agar-dilution MIC assay; conditions: Staphylococcus aureus, NRRLB313
Description: as §2

[7] = system: Streptococcus sp. group D 9960; assay: standard agar-dilution MIC assay; conditions: Streptococcus
Description: as §2

[8] = system: Staphylococcus aureus V41; assay: standard agar-dilution MIC assay; conditions: Staphylococcus aureus, V41
Description: as §2

Proteus inconstans PR33 = assay: standard agar-dilution MIC assay; conditions: Providencia alcalifaciens, PR33
Description: as §2

[9] = system: Staphylococcus epidermidis 222; assay: standard agar-dilution MIC assay; conditions: Staphylococcus epidermidis, 222
Description: as §2

Escherichia coli EC14 = assay: standard agar-dilution MIC assay
Description: as §2

[10] = system: Staphylococcus aureus S13E; assay: standard agar-dilution MIC assay
Description: as §2

[11] = system: Citrobacter freundii CF17; assay: standard agar-dilution MIC assay; conditions: Citrobacter freundii, CF17
Description: as §2

[12] = system: Streptococcus pyogenes C203; assay: standard agar-dilution MIC assay
Description: as §2

[13] = system: Streptococcus pneumoniae Park 1; assay: standard agar-dilution MIC assay; conditions: Streptococcus pneumoniae, PARK1
Description: as §2

[14] = system: Enterobacter cloacae 265A; assay: standard agar-dilution MIC assay; conditions: Enterobacter cloacae, 265A
Description: as §2

[15] = system: Pseudomonas aeruginosa X528; assay: standard agar-dilution MIC assay; conditions: Pseudomonas aeruginosa, X528
Description: as §2

Serratia marcescens X99 = assay: standard agar-dilution MIC assay; conditions: Serratia marcescens, X99
Description: as §2

[16] = system: Pseudomonas aeruginosa X239; assay: standard agar-dilution MIC assay; conditions: Pseudomonas aeruginosa, X239
Description: as §2

[17] = system: Klebsiella pneumoniae X68; assay: standard agar-dilution MIC assay; conditions: Klebsiella pneumoniae, X68
Description: as §2

[18] = system: Klebsiella pneumoniae X26; assay: standard agar-dilution MIC assay; conditions: Klebsiella pneumoniae, X26
Description: as §2

[19] = system: Staphylococcus epidermidis EPI1; assay: standard agar-dilution MIC assay
Description: as §2

[20] = system: Enterobacter aerogenes EB17; assay: standard agar-dilution MIC assay; conditions: Klebsiella aerogenes, EB17
Description: as §2

Escherichia coli TEM = assay: standard agar-dilution MIC assay
Description: as §2

[21] = system: Enterobacter aerogenes C32; assay: standard agar-dilution MIC assay; conditions: Klebsiella aerogenes, C32
Description: as §2

Enterobacter cloacae EB5 = assay: standard agar-dilution MIC assay; conditions: Enterobacter cloacae, EB5
Description: as §2

Escherichia coli N10 = assay: standard agar-dilution MIC assay
Description: as §2

Serratia marcescens SE3 = assay: standard agar-dilution MIC assay; conditions: Serratia marcescens, SE3
Description: as §2

O=C(N[C@H](CO)[C@H](O)c1ccc([N+](=O)[O-])cc1)C(Cl)Cl [Chloramphenicol]
resistance / sensitivity of the culture to antibiotic [1]: resistant | activity against E. coli (Escherichia coli): active

C[C@@H]1C[C@@H]([C@H](O)CC2CC(=O)NC(=O)C2)C(=O)[C@@H](C)C1 [Cycloheximide]
activity against N. crassa (Neurospora crassa): active

CO[C@H]1/C=C/O[C@@]2(C)Oc3c(C)c(O)c4c(O)c(c(/C=N/N5CCN(C)CC5)c(O)c4c3C2=O)NC(=O)/C(C)=C\C=C\[C@H](C)[C@H](O)[C@@H](C)[C@@H](O)[C@@H](C)[C@H](OC(C)=O)[C@@H]1C [Rifampin, reference compound]
resistance / sensitivity of the culture to antibiotic [1]: resistant | MIC [2]: 0.06 µg/mL (≈ 0.0729 µM) | MIC (Salmonella typhi 1335): 16 µg/mL (≈ 19.4 µM) | MIC [3]: > 128 µg/mL | MIC [4]: 32 µg/mL (≈ 38.9 µM) | MIC (Shigella sonnei N9): 16 µg/mL (≈ 19.4 µM) | MIC (Proteus rettgeri C24): 8 µg/mL (≈ 9.72 µM) | MIC (Salmonella typhi X514): 16 µg/mL (≈ 19.4 µM) | MIC [5]: 2 µg/mL (≈ 2.43 µM) | MIC (Proteus morganii PR15): 32 µg/mL (≈ 38.9 µM) | MIC [6]: 0.03 µg/mL (≈ 0.0365 µM) | MIC [7]: 2 µg/mL (≈ 2.43 µM) | MIC [8]: 0.015 µg/mL (≈ 0.0182 µM) | MIC (Proteus inconstans PR33): 16 µg/mL (≈ 19.4 µM) | MIC [9]: 0.06 µg/mL (≈ 0.0729 µM) | MIC (Escherichia coli EC14): 16 µg/mL (≈ 19.4 µM) | MIC [10]: 0.03 µg/mL (≈ 0.0365 µM) | MIC [11]: 16 µg/mL (≈ 19.4 µM) | MIC [12]: 0.25 µg/mL (≈ 0.304 µM) | MIC [13]: 0.125 µg/mL (≈ 0.152 µM) | MIC [14]: 32 µg/mL (≈ 38.9 µM) | MIC [15]: 16 µg/mL (≈ 19.4 µM) | MIC (Serratia marcescens X99): 32 µg/mL (≈ 38.9 µM) | MIC [16]: 16 µg/mL (≈ 19.4 µM) | MIC [17]: 16 µg/mL (≈ 19.4 µM) | MIC [18]: 16 µg/mL (≈ 19.4 µM) | MIC [19]: 0.06 µg/mL (≈ 0.0729 µM) | MIC [20]: 32 µg/mL (≈ 38.9 µM) | MIC (Escherichia coli TEM): 128 µg/mL (≈ 156 µM) | MIC [21]: 32 µg/mL (≈ 38.9 µM) | MIC (Enterobacter cloacae EB5): 32 µg/mL (≈ 38.9 µM) | MIC (Escherichia coli N10): 16 µg/mL (≈ 19.4 µM) | MIC (Serratia marcescens SE3): 64 µg/mL (≈ 77.8 µM)

CC[C@H](C)[C@H](N)C1=N[C@H](C(=O)N[C@@H](CC(C)C)C(=O)N[C@H](CCC(=O)O)C(=O)N[C@H](C(=O)N[C@H]2CCCCNC(=O)[C@H](CC(N)=O)NC(=O)[C@@H](CC(=O)O)NC(=O)[C@H](Cc3cnc[nH]3)NC(=O)[C@@H](Cc3ccccc3)NC(=O)[C@H]([C@@H](C)CC)NC(=O)[C@@H](CCCN)NC2=O)[C@@H](C)CC)CS1 [bacitracin] ({Ileψ(thiazoline)Cys}-L[dE]IK[dOrn]I[dF]H[dD]N; lactam 4-C)
resistance / sensitivity of the culture to antibiotic [1]: sensitive

CC(=O)OCC1=C(C(=O)O)N2C(=O)[C@@H](NC(=O)Cc3cccs3)[C@H]2SC1 [cephalothin]
resistance / sensitivity of the culture to antibiotic [1]: sensitive

CC[C@H]1OC(=O)[C@H](C)[C@@H](O[C@H]2C[C@@](C)(OC)[C@@H](O)[C@H](C)O2)[C@H](C)[C@@H](O[C@@H]2O[C@H](C)C[C@H](N(C)C)[C@H]2O)[C@](C)(O)C[C@@H](C)C(=O)[C@H](C)[C@@H](O)[C@]1(C)O [erythromycin]
resistance / sensitivity of the culture to antibiotic [1]: sensitive

CCC[C@@H]1C[C@@H](C(=O)N[C@@H]([C@H]2O[C@H](SC)[C@H](O)[C@@H](O)[C@H]2O)[C@@H](C)O)N(C)C1 [lincomycin]
resistance / sensitivity of the culture to antibiotic [1]: resistant

CCn1cc(C(=O)O)c(=O)c2ccc(C)nc21 [nalidixic acid]
resistance / sensitivity of the culture to antibiotic [1]: resistant

NC[C@@H]1O[C@H](O[C@H]2[C@@H](O)[C@H](O[C@@H]3[C@@H](O)[C@H](N)C[C@H](N)[C@H]3O[C@H]3O[C@H](CN)[C@@H](O)[C@H](O)[C@H]3N)O[C@@H]2CO)[C@H](N)[C@@H](O)[C@@H]1O [neomycin]
resistance / sensitivity of the culture to antibiotic [1]: sensitive

CO[C@@H]1[C@@H](OC(N)=O)[C@@H](O)[C@H](Oc2ccc3c(O)c(NC(=O)c4ccc(O)c(CC=C(C)C)c4)c(=O)oc3c2C)OC1(C)C [novobiocin]
resistance / sensitivity of the culture to antibiotic [1]: sensitive

CC1(C)S[C@@H]2[C@H](NC(=O)Cc3ccccc3)C(=O)N2[C@H]1C(=O)O [penicillin G]
resistance / sensitivity of the culture to antibiotic [1]: sensitive

[H]/N=C(/N)N[C@H]1[C@H](O)[C@@H](O)[C@H](O[C@@H]2O[C@@H](C)[C@](O)(C=O)[C@H]2O[C@@H]2O[C@@H](CO)[C@H](O)[C@@H](O)[C@@H]2NC)[C@@H](N/C(N)=N\[H])[C@@H]1O [streptomycin]
resistance / sensitivity of the culture to antibiotic [1]: sensitive

Nc1ccc(S(=O)(=O)Nc2ncccn2)cc1 [sulfadiazine]
resistance / sensitivity of the culture to antibiotic [1]: sensitive

CN(C)[C@@H]1C(O)=C(C(N)=O)C(=O)[C@@]2(O)C(O)=C3C(=O)c4c(O)cccc4[C@@](C)(O)[C@H]3C[C@@H]12 [tetracycline]
resistance / sensitivity of the culture to antibiotic [1]: sensitive

CN[C@H](CC(C)C)C(=O)N[C@H]1C(=O)N[C@@H](CC(N)=O)C(=O)N[C@H]2C(=O)N[C@H]3C(=O)N[C@H](C(=O)N[C@H](C(=O)O)c4cc(O)cc(O)c4-c4cc3ccc4O)[C@H](O)c3ccc(c(Cl)c3)Oc3cc2cc(c3O[C@@H]2O[C@H](CO)[C@@H](O)[C@H](O)[C@H]2O[C@H]2C[C@](C)(N)[C@H](O)[C@H](C)O2)Oc2ccc(cc2Cl)[C@H]1O [vancomycin]
resistance / sensitivity of the culture to antibiotic [1]: sensitive

gentamicin
resistance / sensitivity of the culture to antibiotic [1]: sensitive

polymyxin B
resistance / sensitivity of the culture to antibiotic [1]: sensitive
